Assay results: publication PMC10354055, “An optimized Nurr1 agonist provides disease-modifying effects in Parkinson’s disease models” (Nature Communications, 2023)
Several values for one entry are separate records, joined by “and”; a condition that tells them apart may be missing. Identical values can stand only once.

Legend:
[1] = target: T1, Nurr1-LBD point mutants (Mus musculus, UniProt Q06219, D594A); assay: Luciferase assay with point-mutants of Nurr1-LBD, SK-N-BE(2)C cells;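 further: Firefly luciferase normalized to beta-galactosidase activity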; type: cell-based; settings: Supplementary Fig. 2, D594A
T1 construct: expressed in transfected cells; host or cells: SK-N-BE(2)C
T1 sequence (Q06219 whole entry D594A, the tested form may be a part): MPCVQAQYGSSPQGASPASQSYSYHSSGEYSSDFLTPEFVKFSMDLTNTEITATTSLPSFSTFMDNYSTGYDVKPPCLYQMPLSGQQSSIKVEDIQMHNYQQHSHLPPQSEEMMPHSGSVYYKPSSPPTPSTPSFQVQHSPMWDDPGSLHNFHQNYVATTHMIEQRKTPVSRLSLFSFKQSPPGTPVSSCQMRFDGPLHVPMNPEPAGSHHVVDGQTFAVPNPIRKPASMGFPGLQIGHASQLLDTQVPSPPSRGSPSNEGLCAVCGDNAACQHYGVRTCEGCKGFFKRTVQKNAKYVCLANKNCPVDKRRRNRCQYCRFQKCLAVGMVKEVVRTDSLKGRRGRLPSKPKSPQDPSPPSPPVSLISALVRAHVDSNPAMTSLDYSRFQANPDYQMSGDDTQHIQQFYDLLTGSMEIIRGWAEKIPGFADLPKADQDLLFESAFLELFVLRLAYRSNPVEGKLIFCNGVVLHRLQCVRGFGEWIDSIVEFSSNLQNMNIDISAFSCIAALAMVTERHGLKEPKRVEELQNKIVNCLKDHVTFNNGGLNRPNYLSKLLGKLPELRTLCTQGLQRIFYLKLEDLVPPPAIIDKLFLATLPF
Experimental: (§1) Nurr1 transactivity was normalized to β-galactosidase activity.
(§2) Nurr1 mutants were generated using the QuikChange ǁ XL site-directed mutagenesis kit (Agilent Technologies) according to the manufacturer’s instruction. Mutagenesis reactions were carried out on the plasmid of mouse Nurr1 cloned into pcDNA3.1 backbone, and then verified by sequencing.

[2] = target: T2, Nurr1-LBD point mutants (Mus musculus, UniProt Q06219, L593A); assay: as above; type: cell-based; settings: Supplementary Fig. 2, L593A
T2 construct: expressed in transfected cells; host or cells: SK-N-BE(2)C
T2 sequence (Q06219 whole entry L593A, the tested form may be a part): as the sequence (Q06219 whole entry D594A, the tested form may be a part) above, with L593A, A594D counted along it
Experimental: as §1, §2

[3] = target: T3, Nurr1-LBD point mutants (Mus musculus, UniProt Q06219, S441A); assay: as above; type: cell-based; settings: Supplementary Fig. 2, S441A
T3 construct: expressed in transfected cells; host or cells: SK-N-BE(2)C
T3 sequence (Q06219 whole entry S441A, the tested form may be a part): as the sequence (Q06219 whole entry D594A, the tested form may be a part) above, with S441A, A594D counted along it
Experimental: as §1, §2

[4] = target: T4, Nurr1-LBD point mutants (Mus musculus, UniProt Q06219, K590A); assay: as above; type: cell-based; settings: Supplementary Fig. 2, K590A
T4 construct: expressed in transfected cells; host or cells: SK-N-BE(2)C
T4 sequence (Q06219 whole entry K590A, the tested form may be a part): as the sequence (Q06219 whole entry D594A, the tested form may be a part) above, with K590A, A594D counted along it
Experimental: as §1, §2

[5] = target: T5, Nurr1-LBD point mutants (Mus musculus, UniProt Q06219); assay: as above; type: cell-based; settings: Supplementary Fig. 2, WT
T5 construct: expressed in transfected cells; host or cells: SK-N-BE(2)C
T5 sequence (Q06219 whole entry, change not shown, the tested form may be a part): as the sequence (Q06219 whole entry D594A, the tested form may be a part) above, with A594D counted along it
Experimental: as §1, §2

[6] = target: T6, Nur77 (Homo sapiens, UniProt P22736); assay: Luciferase reporter assay, Nur77 LBD, SK-N-BE(2)C cells; type: cell-based; settings: Fig. 1f, CQ 100 µM, 4A7C-301 20 µM, cytosporone B 10 µM
T6 construct: using LBD of NR4A subfamily members in SK-N-BE(2)C cells; expressed in transfected cells; host or cells: SK-N-BE(2)C
T6 sequence (P22736 360-595 limits assumed, species assumed): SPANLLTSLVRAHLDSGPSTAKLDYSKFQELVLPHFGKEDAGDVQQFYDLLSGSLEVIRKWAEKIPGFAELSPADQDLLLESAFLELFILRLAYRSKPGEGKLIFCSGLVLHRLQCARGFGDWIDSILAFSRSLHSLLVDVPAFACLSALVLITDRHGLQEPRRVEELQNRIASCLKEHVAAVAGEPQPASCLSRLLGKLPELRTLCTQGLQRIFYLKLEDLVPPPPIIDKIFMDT

[7] = test system: MPTP-induced male mice; assay: Olfactory discrimination test, MPTP-induced PD model mice; type: in vivo, mouse; settings: Figure 4e, MPTP-induced mice, individual animal values
Experimental: (§3) MPTP (Sigma-Aldrich) was intraperitoneally (i.p.) injected (30 mg/kg) for 5 days (Day 1-5). […] To test dyskinetic involuntary behavior, an L-DOPA injected group was included, which received 50 mg/kg of L-DOPA and 15 mg/kg of benserazide (Sigma-Aldrich) (i.p.) for 16 days (Day 1–16). All compounds were administered 6 h post-MPTP injection to avoid any effect of compounds on the MPTP metabolism in the brain. Motor and non-motor related behavior tests were performed on the following days as described in Fig. 4a in an assessor- and observer-blinded fashion. Pre-training and baseline setup for motor-related behaviors were performed 3 days prior to the injections. Mice were sacrificed and subjected to immunohistochemistry. Mice were housed at the Animal Care Facilities of McLean Hospital under a 12-h light/12-h dark cycle, ambient temperature and humidity. Animals were handled in accordance with McLean Hospital’s Institutional Animal Care and Use Committee (Protocol #: 2015N000002) and followed National Institutes of Health guidelines.
The olfactory discrimination test was designed based on Prediger et al.. Briefly, mice were placed in a chamber (40 (w) × 20 (d) × 20 (h) cm) segmented with two identical compartments containing fresh sawdust (non-familiar odor) on one side and unchanged sawdust (familiar odor; maintained for 3 days before the test) on the other side. Mice could choose between one or another area by freely passing through an open door, for 5 min. Mice movements were monitored with EthoVision XT version 7.0 (Noldus) and time (s) and distance (cm) traveled in each compartment were recorded and analyzed.

[8] = test system: MPTP-induced male mice; assay: IHC/stereology of TH+ fibers, TH+ DA neurons and NeuN+ neurons, MPTP-induced mice; type: in vivo, mouse; settings: MPTP-induced mice, individual animal values
Experimental: as §3
(§4) Images were acquired using a KEYENCE microscope and quantified as the number or optical density of immunoreactive cells using ImageJ software.
(§5) The numbers of TH^+ DA neurons, NeuN^+ neurons, pS129 αSyn^+ cells in the SN and Iba-1^+ microglia in the SN and striatum were stereologically counted in six coronal sections (30 µm thickness) taken every 6th section (180 µm intervals) for each brain. The boundaries of the SN and striatum were delimited at low magnification (4X) to estimate each total area. Immunoreactive cells were counted with images taken at high magnification (×40) by a single blinded investigator. The group mean of the total number of immunoreactive cells from each brain was transformed as percentage of the number in the control group (%). For AAV-αSyn-induced mice, the group mean of the total number of cells in the ipsilateral side was transformed as a percentage of that observed in the contralateral side.

[9] = test system: MPTP-induced male mice; assay: IHC of Iba-1+ microglia in STR and SNpc, MPTP-induced mice; type: in vivo, mouse; settings: MPTP-induced mice, individual animal values
Experimental: as §3, §4, §5

[10] = test system: MPTP-induced male mice; assay: Rotarod, sub-chronic MPTP-induced PD model mice; type: in vivo, mouse
Experimental: as §3
Mice were pre-trained on an automated 5-lane rotarod unit (10 rpm, 3 min) for 2 days and the baseline was measured (10 rpm, 90 sec) before the rotarod test (3 days before the MPTP injection or the first rotarod test at week 2). Rotarod measurements were performed using an accelerating protocol, accelerated smoothly from 2 to 30 rpm for 5 min. Time on the rotating rod was measured automatically by placing a trip switch under the floor beneath the rotating drum.

[11] = test system: MPTP-induced male mice; assay: Pole test, MPTP-induced PD model mice; type: in vivo, mouse
Experimental: as §3
Mice were trained to descend a vertical metal rod wrapped with rough tape (80 cm high, 12 mm diameter) once per day for 2 days, and then the baseline was measured before the pole test (3 days before the MPTP injection or the first pole test at week 2). Mice were placed head-upward on the pole and total descent time was recorded.

[12] = test system: MPTP-induced male mice; assay: Cylinder test, MPTP-induced PD model mice; type: in vivo, mouse
Experimental: as §3
Mice were placed in a transparent plastic cylinder (15.5 cm high, 12.7 cm diameter) with a mirror behind it. Spontaneous activity was recorded and measured as counting the number of rearing events for 3 min session. A rear was considered only when the mouse touched the wall of the cylinder with its forelimb paws while standing on its hindlimbs (vertical movement) to count meaningful physiological movements.

[13] = test system: MPTP-induced male mice; assay: AIMs scoring (dyskinesia), MPTP-induced PD model mice; type: in vivo, mouse; settings: for AIMs score (20-140 min): Figure 4f, MPTP-induced mice, individual animal values
Experimental: Male C57BL/6 J mice (8–10 weeks, 25–30 g; Jackson Laboratories) were randomly assigned to 5 groups including vehicle (VEH), MPTP, MPTP + L-DOPA, MPTP + CQ and MPTP + 4A7C-301 (n ≥ 7 for each group). MPTP (Sigma-Aldrich) was intraperitoneally (i.p.) injected (30 mg/kg) for 5 days (Day 1-5). Different dosages of CQ (20, 40, and 80 mg/kg) and 4A7C-301 (1, 5, 20 mg/kg) were first tested to determine the effective dose window, then 40 and 5 mg/kg doses were finally selected for CQ and 4A7C-301 respectively to show the most prominent effects. CQ or 4A7C-301 was dissolved in PBS and administrated (i.p.) for 16 days starting with MPTP injection (Day 1-16). To test dyskinetic involuntary behavior, an L-DOPA injected group was included, which received 50 mg/kg of L-DOPA and 15 mg/kg of benserazide (Sigma-Aldrich) (i.p.) for 16 days (Day 1–16). All compounds were administered 6 h post-MPTP injection to avoid any effect of compounds on the MPTP metabolism in the brain. Motor and non-motor related behavior tests were performed on the following days as described in Fig. 4a in an assessor- and observer-blinded fashion. Pre-training and baseline setup for motor-related behaviors were performed 3 days prior to the injections. Mice were sacrificed and subjected to immunohistochemistry. Mice were housed at the Animal Care Facilities of McLean Hospital under a 12-h light/12-h dark cycle, ambient temperature and humidity. Animals were handled in accordance with McLean Hospital’s Institutional Animal Care and Use Committee (Protocol #: 2015N000002) and followed National Institutes of Health guidelines.
Abnormal involuntary movements (AIMs) were scored using the developed mouse dyskinesia rating scale as described in Sebastianutto et al.. Briefly, 4 mice were recorded simultaneously with a Swann HD Security System (B&H Photo-Video Inc.) for 2 min per session, every 20 min during the 140 min following drug injections (i.e., total 7 sessions), on every other or third day (Day 2, 4, 7, 9, 11, 13, and 16). Dyskinetic movements were scored for 3 subtypes of basic AIMs including axial, forelimb and orolingual AIMs, based on the severity scale from 0 to 4 which measures the duration of AIMs (0 = no dyskinesia; 1 = display dyskinesia for <50% of the observation time; 2 = display dyskinesia for >50% of the observation time; 3 = display dyskinesia for the entire observation period but ceased upon external stimuli; 4 = display continuous and unceasing dyskinesia). To get a better and more sensitive validation of mice dyskinesia, we included an amplitude AIMs score, which rates the degree of deviation of body part or muscle position from its resting position on a 0-4 scale as previously described. Finally, global AIMs score was calculated by multiplying basic AIMs and amplitude AIMs scores for each subtype on each session. Data points were plotted as the grand total of individual AIMs score on each testing day.

[14] = CQ 40, 4A7C-301 5, L-DOPA 50 mg/kg/day, i.p., 16 days

Structure (SMILES): CCN(CC)Cc1cc(Nc2ccnc3cc(Cl)ccc23)ccc1O [AQ, amodiaquine]
- Luciferase activity (fold) [1]: 15.1749 fold and 15.4902 fold and 14.0814 fold
- Luciferase activity (fold) [2]: 14.8074 fold and 14.193 fold and 15.2957 fold
- Luciferase activity (fold) [3]: 14.9384 fold and 15.2215 fold and 14.6264 fold
- Luciferase activity (fold) [4]: 14.5075 fold and 14.599 fold and 17.3856 fold
- Luciferase activity (fold) [5]: 16.1226 fold and 16.0906 fold and 15.547 fold

Structure (SMILES): CCCCCCCC(=O)c1c(O)cc(O)cc1CC(=O)OCC [Cytosporone B, cytosporone B]
- Luciferase activity (fold), Nur77 [6]: 13.029 fold and 14.4047 fold and 12.8586 fold
- Luciferase activity (fold), Nur77 ([6]; listed as cytosporone B): robustly increased

Structure (SMILES): N[C@@H](Cc1ccc(O)c(O)c1)C(=O)O [L-DOPA]
- Velocity [7]: 4.7 cm/s and 5.67 cm/s and 6.49 cm/s and 5.88 cm/s and 6.16 cm/s and 7.7 cm/s and 9.82 cm/s and 6.86 cm/s and 7.1 cm/s and 6.45 cm/s and 7.2 cm/s
- Duration to stay (sec), New bedding ([7]; New bedding): 183.25 s and 108.99 s and 116.25 s and 132.99 s and 167.47 s and 141.68 s and 212.98 s and 167.63 s and 167.4 s and 102.43 s and 140.79 s
- Duration to stay (sec), Old bedding ([7]; Old bedding): 133.6 s and 197.16 s and 159.56 s and 114.75 s and 189.57 s and 183.55 s and 166.31 s and 132.11 s and 158.67 s and 90.56 s and 134.77 s
- TH+ neurons in SNpc (% of control) ([8]; Figure 4j): 85.08 % of control and 29.95 % of control and 41.78 % of control and 36.5 % of control and 16.11 % of control and 47.32 % of control and 20.39 % of control
- NeuN+ neurons in SNpc (% of control) ([8]; Figure 4k): 54.87 % of control and 63.58 % of control and 65.33 % of control and 79.48 % of control
- TH fiber density in STR (% of control) ([8]; Figure 4h): 32.4 % of control and 36.19 % of control and 33.35 % of control and 30.68 % of control and 30.71 % of control and 45.79 % of control and 28.8 % of control
- Iba-1+ cells in STR (% of control) ([9]; Figure 4m): 163.11 % of control and 168.08 % of control and 185.26 % of control and 234.36 % of control and 189.06 % of control and 208.32 % of control and 222.78 % of control
- Iba-1+ cells in SNpc (% of control) ([9]; Figure 4n): 319.52 % of control and 324.44 % of control and 366.71 % of control and 419.8 % of control and 373.6 % of control and 282.16 % of control and 446.35 % of control
- motor function, rotarod (in words) [10, 14]: significantly rescued
- Latency to fall ([10]; Figure 4b, MPTP-induced mice, individual animal values): 137.97 s and 138.13 s and 80.13 s and 101.23 s and 128.1 s and 204.93 s and 146.8 s and 175.2 s and 116.5 s and 196.07 s
- motor function, pole test (in words) [11, 14]: significantly rescued
- Time to traverse ([11]; Figure 4c, MPTP-induced mice, individual animal values): 8.78 s and 7.65 s and 6.89 s and 8.14 s and 4.4 s and 7.41 s and 5.91 s and 7.98 s and 7.2 s and 9.47 s
- motor function, cylinder test (in words) [12, 14]: significantly rescued
- Number of rearing ([12]; Figure 4d, MPTP-induced mice, individual animal values): 34 and 77 and 71 and 22 and 24 and 17 and 21 and 55 and 32 and 29
- abnormal involuntary movements (AIMs) (in words) ([13]; CQ 40, 4A7C-301 5, L-DOPA 50 mg/kg/day, i.p.): severe AIMs
- AIMs score (20-140 min) ([13]; day 2): 7 and 5.5 and 11 (2×) and 6 and 14 and 20 and 4 and 12 and 5 and 16.3
- AIMs score (20-140 min) ([13]; day 4): 9 and 13 and 14 and 12 (2×) and 16 (2×) and 17 (2×) and 27 (2×)
- AIMs score (20-140 min) ([13]; day 7): 21.5 and 27.5 and 12 and 55 and 25.5 and 35 and 14 and 56 and 31.5 and 46 and 20
- AIMs score (20-140 min) ([13]; day 9): 23 (2×) and 26 and 21 (3×) and 19 (2×) and 42 and 18 and 44
- AIMs score (20-140 min) ([13]; day 11): 28 and 33 and 23 and 27 and 20 and 35 (2×) and 12 and 55.5 and 30.5 and 61
- AIMs score (20-140 min) ([13]; day 13): 63.5 and 30.5 and 43 and 32.5 and 36 and 50 and 34 and 34.5 and 53.25 and 63 and 56
- AIMs score (20-140 min) ([13]; day 16): 110.5 and 38.5 (2×) and 56 and 60.5 and 40.5 and 47.5 and 84 and 48.5 and 67.5 and 83.5
